Series [1] deals with community-dwelling subjects with mild or moderate dementia. The settings on record: cited from earlier work.
For series [2], the system named is subjects with early-stage dementia. The settings on record: 44 subjects with early-stage dementia; cited from earlier work.
For the next series, the system named is spleen T-cells. The series can be described thus: Proliferation assay ([3H]thymidine incorporation) of spleen cells after feeding or nasal treatment and immunization. The series is classed as in vivo, SWISSXBDF1 mice. The settings on record: fed (75 µg/feeding x 5) or nasally treated (25 µg x 3); immunized two days after last treatment with 100 µg peptide in 50 µg CFA; Figure 1A. The protocol: (§1) Female BALB/C (6-8 weeks of age); DBA/2; C3H/eb; C47b1/6; SWISSXBDF1 or SHL/J mice were used. The animals were maintained in a temperature- and light-controlled environment with free access to feed and water. Each experimental group contained no fewer than 5 mice.
(§2) Mice were immunized with 100 µg of [1-40]β-amyloid peptide ([1-40]Aβ) emulsified in 50 µg CFA (Difco Laboratories, Inc.). On day 10, popliteal lymph nodes and spleens were removed and for T-cell proliferation and cytokine production.

Series [3] has as its system popliteal lymph node T-cells. The series can be described thus: Proliferation assay ([3H]thymidine incorporation) of popliteal lymph node cells after feeding or nasal treatment and immunization. In kind it is in vivo, SWISSXBDF1 mice. The settings on record: fed or nasally treated; ten days after foot pad immunization with 100 µg peptide in 50 µg CFA; Figure 1B. As for the experimental part:
as §1, §2
(Incorporation of labelled thymidine or its analogues reports DNA synthesis.)

In series [4] the test system is popliteal lymph node T-cells and spleen cells. Put plainly: Proliferation assay in mouse strains immunized but not fed the peptide. The series is classed as in vivo, SJL/J, DBA/1, C57BL/6, BALB/C and C3H/EB mice. As to conditions: one in vitro stimulation, Figures 2A, 2B. The protocol: as §2
Figure 2A compares proliferation of popliteal lymph node T-cells from SJL/J, DBA/I, C57BL/6, BALB/C and C3H/EB mice immunized with [1-40]β-amyloid peptide. Figure 2B compares proliferation in spleen cells from SJL/J, DBA/1, C57BL/6, BALB/C and C3H/EB mice immunized with [1-40]β-amyloid peptide. […] It should be noted that T-cells for the experiment shown in this Example are stimulated with antigen only once in vitro prior to the proliferation assay. Additional stimulations would enlist response from the apparent non-responder strain C57BL/6 and (DBA/1). This experiment provides information about the responding ability of cells from various strains and was useful in designing the subsequent experiments described below. It is believed to be advantageous to select "good responders" (such as C3H/EB) but not "too high responders" (SJL/J was thus not chosen).

The subject of series [5] is popliteal lymph node and spleen T-cells. The series can be described thus: Cytokine production assay (capture ELISA) after feeding or nasal administration and immunization. In kind it is in vivo, C3H/EB mice. The settings on record: then immunized. The protocol: C3H/eb mice were fed [1-40]Aβ 500 µg/feeding, 50 µg/feeding, or 5 µg/feeding every day for 5 days (200 µl/feeding). Nasal administration was given at 50 µg/application or 5 µg/application every day for 3 days (10 µl/application).
This experiment also served as a preliminary dose response experiment for this mouse strain.
Figure 5A illustrates the result in secretion of the Th1 immunostimulatory (proinflammatory) cytokine IL-2 in popliteal lymph nodes from C3H/EB mice at various feeding levels (5, 50 and 500 µg/feeding for 5 days) and when nasally administered (5 or 50 µg/application for 3 days) [1-40]β-amyloid peptide prior to immunization (2 days after the last feeding or nasal application) with 100 µg [1-40]β-amyloid peptide in 50 µg CFA. […] Based on the results for Fig. 5A, and Figs. 5B, 6A, 6B, and 7A, 7B, it was decided to use 25 µg nasally and 75 µg orally in subsequent experiments.
A general note: In an ELISA, binding on a coated surface is turned into a signal by an enzyme label.

For series [6] the test system is unchanged. The series can be described thus: Cytokine profiles (capture ELISA) after feeding or nasal administration and immunization of non-transgenic littermates. In kind it is in vivo, SWISSXXB6D2F1 mice. As to conditions: then immunized, ten days later.
Procedure: Levels of IL-4, IL-2, IL-10, TGF-β and IFNγ in supernatants were determined by capture ELISA as described. […] Briefly, supernatants were added to microtiter (Maxisorp) plates, previously coated with rat anti-mouse IL-4, IL-2, IL-10, TGF-β or IFN-γ monoclonal antibodies (capture antibodies, Pharmingen; 1 µg/ml at 4°C over night) and blocked with BSA-diluent/blocking solution (KPL). Plates were washed, and standards and samples were added for another overnight incubation at 4°C. Bound cytokine was detected by the addition of ABTS (Kirkegaard & Perry). Wells were washed, and cytokine levels determined using biotinylated rat anti-mouse IL-4, IL-2, IL-10, TGF-β or IFN-γ monoclonal antibodies (detecting antibodies, Pharmingen) and a peroxide visualization system (peroxidase-labeled streptavidin). IL-2 and IL-4 were analyzed after 24 hours of cell incubation with antigen, IL-10 and IFN-γ after 40 hours and TGF-β after 72 hours. Cytokine levels were calculated from a log-log plot of absorbance vs. concentration of recombinant cytokines (Pharmingen), and results are expressed in pg/mL (for IL-4, IL-2, IL-10, TGF-β and IFN-γ). Threshold sensitivities of ELISA assays were 5 pg/mL, 10 pg/mL and 2.5 ng/mL for IL-4, IL-2 and IFN-γ, respectively.
Feeding and Immunization: SWISSXXB6D2F1 mice were fed with [1-40]Aβ 75 µg/feeding x 5 or nasally administered with 25 µg/application x 3, and 2 days after the last treatment, were immunized with 100 µg [1-40]Aβ in 50 µg CFA. Ten days later, the popliteal lymph node and spleen T-cells were checked for cytokine production as described above.
The test system of series [7] is PDAPP mice. The series can be described thus: β-amyloid plaque load in brain sections (visual and computer assisted image analysis). In kind it is in vivo. An excerpt:
Transgenic PDAPP mice were acquired from Athena Neurosciences, Inc. (South San Francisco, CA). These mice express a human gene encoding a mutant form of β-amyloid precursor protein and progressively develop β-amyloid deposits in the hippocampus and cerebral cortex in a manner similar to that seen in Alzheimer's disease. The β-amyloid deposits in the transgenic mice become associated with activated microglial cells, reactive astrocytes and other features of the periplaque inflammatory response seen in Alzheimer's disease brains.
4 to 5 month old PDAPP mice were fed or nasally administered either [1-40]β-amyloid peptide or a control protein (myelin basic protein or ovalbumin in amounts of 50 or 500 µg per feeding). Administration was carried out three (nasal) or five times consecutively (oral) during an initial one week period, and then on a weekly basis until the animals were between 11 and 12 months old. The orally administered β-amyloid peptide was in a dosage of 10 or 100 µg, and the nasally administered β-amyloid was in a dosage of 5 or 25 µg. […]
Specificially, results are shown for both visual and computer assisted image analysis of β-amyloid plaque load for the 8 experimental groups of mice that were tested; values are shown for each mouse in the relevant group. […] The visual assessment of plaque load was scored according to the table shown at the bottom of Figure 9A.

Series [8] relates to PDAPP mice. Put plainly: Immunoreactivity tests on brain sections (immunological markers and cytokines). The series is classed as in vivo. The settings on record: mice treated mucosally; Figures 9A, 9B. As for the experimental part:
4 to 5 month old PDAPP mice were fed or nasally administered either [1-40]β-amyloid peptide or a control protein (myelin basic protein or ovalbumin in amounts of 50 or 500 µg per feeding). Administration was carried out three (nasal) or five times consecutively (oral) during an initial one week period, and then on a weekly basis until the animals were between 11 and 12 months old. The orally administered β-amyloid peptide was in a dosage of 10 or 100 µg, and the nasally administered β-amyloid was in a dosage of 5 or 25 µg.
The feeding and nasal administration of β-amyloid peptide, or ovalbumin to PDAPP mice was conducted among the following mice groups: Group 0: Non treated; mice nos. 0.1-0.7 Group 1: fed [1-40]β-amyloid peptide 100µg/feeding; mice nos. 1.1-1.9 Group 2: fed [1-40]β-amyloid peptide 10µg/feeding; mice nos. 2.1-2.9 Group 3: nasal [1-40]β-amyloid peptide 25µg/treatment; mice nos. 3.1-3.9 Group 4: nasal [1-40]β-amyloid peptide 5µg/treatment; mice nos. 4.1-4.7 Group 5: fed ovalbumin 500µg/feeding; mice nos. 5.1-5.6 Group 6: nasal ovalbumin 50µg/treatment; mice nos. 6.1-6.6 Group 7: fed MBP 500µg/feeding; mice nos. 7.1-7.5 Group 8: nasal MBP 50µg/treatment; mice nos. 8.1-8.6
At the end of the treatment period, the mice were sacrificed and brains, popliteal lymph nodes and spleens removed. […]

A further series concerns β-amyloid. The series can be described thus: Immunoassay of mouse antisera for IgG subtypes against β-amyloid (Down syndrome brain sections as capture antigen). In kind it is in vivo, PDAPP mice. As to conditions: nasally treated with 25 µg; over controls; Figure 11. As for the experimental part: In these experiments, the antisera were tested in an immunoassay for the presence of IgG subtypes against β-amyloid. In the immunoassay, Down syndrome brain sections, which contain large amounts of β-amyloid, were employed as "capture" antigen. IgG in the mice antisera were bound to the sections, and the presence of IgG subtypes in the bound antibodies distinguished by secondary (2°) antibodies specific for each subtype. […] These antibodies are associated with Th2 type cellular immune responses.

Series [9] deals with PLN. The settings on record: mucosally administered, immunized 10 days prior to sacrifice. The protocol: Levels of IL-4, IL-2, IL-10, TGF-β and IFNγ in supernatants were determined by capture ELISA as described. Friedman, A., et al., Proc. Nat'l Acad. Sci. U.S.A., 91, 6688 (1994); Yang, X., et al., J. Immunol., 150, 4354 (1993). Briefly, supernatants were added to microtiter (Maxisorp) plates, previously coated with rat anti-mouse IL-4, IL-2, IL-10, TGF-β or IFN-γ monoclonal antibodies (capture antibodies, Pharmingen; 1 µg/ml at 4°C over night) and blocked with BSA-diluent/blocking solution (KPL). Plates were washed, and standards and samples were added for another overnight incubation at 4°C. Bound cytokine was detected by the addition of ABTS (Kirkegaard & Perry). Wells were washed, and cytokine levels determined using biotinylated rat anti-mouse IL-4, IL-2, IL-10, TGF-β or IFN-γ monoclonal antibodies (detecting antibodies, Pharmingen) and a peroxide visualization system (peroxidase-labeled streptavidin). IL-2 and IL-4 were analyzed after 24 hours of cell incubation with antigen, IL-10 and IFN-γ after 40 hours and TGF-β after 72 hours. Cytokine levels were calculated from a log-log plot of absorbance vs. concentration of recombinant cytokines (Pharmingen), and results are expressed in pg/mL (for IL-4, IL-2, IL-10, TGF-β and IFN-γ). Threshold sensitivities of ELISA assays were 5 pg/mL, 10 pg/mL and 2.5 ng/mL for IL-4, IL-2 and IFN-γ, respectively.
Two mice from each of groups 1, 5, and 8 were immunized with β-amyloid peptide 10 days prior to sacrifice.

Series [10] concerns PLN. The settings on record: mice of certain strains (e.g., C3H/EB and DBA/1) mucosally tolerized.
Where [11] appears, read: at least pursuant to nasal administration of 25 µg.
[12] abbreviates: fed 75 µg/feeding x 5 or nasal 25 µg/application x 3.

Results on three compounds are retold here after patent EP1033998B1, “SUPPRESSING BETA-AMYLOID-RELATED CHANGES IN ALZHEIMER'S DISEASE” (Neuralab, Ltd., priority 1997, dated 2005).

Take `Cl.Nc1c2c(nc3ccccc13)CCCC2.O` [TACRINE, 1,2,3,4-tetrahydro-9-acridinamine monohydrochloride monohydrate]: the “efficacy for treating Alzheimer's disease” value in series [1] (community-dwelling subjects with mild or moderate dementia) is “only partially effective”. For the same compound, the serum aminotransferase levels result in [1] (safety concern, may indicate hepatocellular injury) is “elevation”.
For `COc1ccc2c(c1)c(CC(=O)O)c(C)n2C(=O)c1ccc(Cl)cc1` [indomethacin], the “mental function during the study” value in [2] was “did not deteriorate”.
For the compound “[1-40]β-amyloid peptide: β-amyloid peptide fragment [1-40], sequence derived from β-amyloid precursor protein; antigen given orally or nasally”, in the series on spleen T-cells, the “proliferation of spleen cells” value is reported as “significant suppression of proliferation”. Also, in [3], the “proliferation in popliteal lymph nodes” value was “suppression of proliferation”. Further, the “proliferative response to the peptide after immunization” value in [4] was “many strains of normal mice (not transgenic mice, not Alzheimer's model) respond”. Moreover, the “secretion of IL-2 in spleen cells” value in series [5] (at 5 µg fed and 50 µg nasal, Fig. 5B) was “Suppression of IL-2 secretion was clear”. Also, the “secretion of IL-10” value in [5] (fed 5, 50 or 500 µg/feeding for 5 days or nasal 5 or 50 µg/application for 3 days, Figures 4A, 4B) was “significant enhancement of IL-10 in at least one of spleen and PLN cells treated with at least one dose”. In series [5] (fed 5 and 50 µg/feeding for 5 days or nasal 50 µg/application for 3 days, Figure 6B), the “secretion of TGF-β in spleen cells” value is “enhanced secretion”. Further, the “secretion of IL-2 in popliteal lymph nodes” value in series [5] (nasal administration (5 or 50 µg/application for 3 days), Fig. 5A) is “Suppression of IL-2 secretion was clear”. In [6] (setting [11]), the “in vitro IFN-γ response to Aβ stimulation” value was “reduced in vitro response” and the “in vitro IL-2 response to Aβ stimulation” value was “reduced in vitro response”. Moreover, in [6] (setting [12]), the “in vitro IL-10 response to Aβ stimulation” value was “increased response” and the “in vitro TGF-β response to Aβ stimulation” value is given as “increased response”. Moreover, the “difference in β-amyloid deposits versus controls (1-tailed Mann-Whitney U-test)” value in the series on PDAPP mice [7] (nasally administered 25 µg) is “statistically significant”. Moreover, the “development of β-amyloid deposits” value in the series with PDAPP mice [7] (oral 10 or 100 µg or nasal 5 or 25 µg, weekly from 4-5 to 11-12 months of age, versus control groups) is “fewer β-amyloid deposits”. For the same compound, in the series with PDAPP mice [8], the “microglial activation in the brain” value is “decreased microglial activation” and the “production of inflammatory cytokines in the brain” value was “decreased production”. Besides, the “IgG1 class antibodies against β-amyloid in antisera” value with β-amyloid is “increase”. Besides, the “production of IL-2” value with PLN [9] (Figure 12) is given as “decreased production”. Moreover, the “production of IFN-γ” value with PLN [9] (Figure 14) is given as “decreased production”. The “production of IL-6” value with PLN [9] (Figure 15) is “decreased production”. Moreover, the “production of IL-10” value in the series with PLN [9] (Figure 16) was “increased production”. Moreover, the “production of TGF-β” value in the series on PLN [9] (Figure 17) is “increased production”. For the same compound, the PLN proliferation result in the series on PLN [10] was “decreased PLN proliferation”.
